This passage reports Activity results from ChEMBL document CHEMBL4396870, “Pharmacological Chaperones for the Treatment of α-Mannosidosis” (J Med Chem, 2019).

Experiment [1] has as its system T1, Lysosomal alpha-mannosidase (Homo sapiens), O00754 [C55F].
T1 sequence (whole entry): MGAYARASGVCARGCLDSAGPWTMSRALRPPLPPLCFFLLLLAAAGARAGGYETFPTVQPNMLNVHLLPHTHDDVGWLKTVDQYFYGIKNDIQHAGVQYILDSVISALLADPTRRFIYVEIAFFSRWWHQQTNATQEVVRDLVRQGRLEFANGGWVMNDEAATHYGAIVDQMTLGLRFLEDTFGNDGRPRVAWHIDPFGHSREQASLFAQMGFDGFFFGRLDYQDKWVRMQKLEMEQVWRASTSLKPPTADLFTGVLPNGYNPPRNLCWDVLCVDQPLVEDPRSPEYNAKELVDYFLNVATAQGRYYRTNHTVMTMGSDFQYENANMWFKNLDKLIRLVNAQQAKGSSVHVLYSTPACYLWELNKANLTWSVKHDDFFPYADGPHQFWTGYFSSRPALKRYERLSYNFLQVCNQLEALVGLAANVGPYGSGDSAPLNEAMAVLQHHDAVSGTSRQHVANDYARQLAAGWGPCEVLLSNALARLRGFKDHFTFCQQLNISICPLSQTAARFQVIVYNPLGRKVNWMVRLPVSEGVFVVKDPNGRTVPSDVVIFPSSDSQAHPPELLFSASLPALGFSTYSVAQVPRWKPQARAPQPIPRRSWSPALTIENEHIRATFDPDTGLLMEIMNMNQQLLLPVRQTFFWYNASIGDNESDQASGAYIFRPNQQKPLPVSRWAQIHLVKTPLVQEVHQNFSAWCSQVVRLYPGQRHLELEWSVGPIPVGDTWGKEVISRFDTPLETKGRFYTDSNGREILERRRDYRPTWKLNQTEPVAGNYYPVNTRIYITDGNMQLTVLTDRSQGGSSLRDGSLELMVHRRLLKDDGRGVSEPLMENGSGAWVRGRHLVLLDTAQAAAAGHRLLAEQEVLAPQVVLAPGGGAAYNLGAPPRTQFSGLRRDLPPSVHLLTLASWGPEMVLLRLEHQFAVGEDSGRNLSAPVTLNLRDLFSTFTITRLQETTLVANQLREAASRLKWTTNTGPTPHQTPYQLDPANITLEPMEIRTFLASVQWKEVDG
The experiment is described as follows: Chaperone activity at human Lysosomal alpha-mannosidase C55F mutant transfected in human […] knockout HAP1 cells assessed as enzyme activity enhancement at 20 uM incubated for 96 hrs relative to control.

For experiment [2], the system named is T2, Lysosomal alpha-mannosidase (Homo sapiens), O00754 [R916C].
T2 sequence (whole entry): T1 sequence (whole entry) with F55C, R916C
The experiment is described as follows: Chaperone activity at human Lysosomal alpha-mannosidase R916C mutant transfected in human […] knockout HAP1 cells assessed as enzyme activity enhancement at 2 uM incubated for 96 hrs relative to control.

Substitutions are numbered along the chain they refer to.

Regarding `CC(C)(C)OC(=O)NCCCCCCCCCN[C@@H]1[C@@H](O)[C@@H](O)[C@H](O)[C@H]2COC(=O)N21`, the Activity in experiment [1] is 111%; in experiment [2] it was 26%.
Taken in the same sequence, the figures for `COC[C@H]1O[C@@H]2O[C@H]3[C@H](OC)[C@@H](OC)[C@@H](O[C@H]4[C@H](OC)[C@@H](OC)[C@@H](O[C@H]5[C@H](OC)[C@@H](OC)[C@@H](O[C@H]6[C@H](OC)[C@@H](OC)[C@@H](O[C@H]7[C@H](OC)[C@@H](OC)[C@@H](O[C@H]8[C@H](OC)[C@@H](OC)[C@@H](O[C@H]1[C@H](OC)[C@H]2OC)O[C@@H]8COC)O[C@@H]7COC)O[C@@H]6COC)O[C@@H]5COCc1cn(CCCCCCN[C@@H]2[C@@H](O)[C@@H](O)[C@H](O)[C@H]5COC(=O)N52)nn1)O[C@@H]4COC)O[C@@H]3COC` were 16% and 33%.
